Laboratory results taken from patent publication US8992933B2, “Methods for activating T cells and modulating an immune response” (New York University, priority 2011, dated 2015).

How the values were obtained:
Type in all cases: cell-based, human
[1] = tested on: CCR6+ IL-17- TM cells; assay: IL-17 induction by cytokine culture of sorted, activated CCR6+IL-17- memory T cells (intracellular staining, FACS); conditions: cultured with the cytokine for 6 days; IL-23 in the absence of IL-2
Experimental: (§1) Peripheral Blood Mononuclear Cells (PBMCs) from healthy individuals (New York Blood Center, New York, N.Y.) were prepared using Ficoll-paque plus (GE Amersham, Uppsala, Sweden). Whole blood samples from rheumatoid arthritis patients were purchased from Bioreclamation (New York, N.Y.) and were processed similar to healthy donor blood. All healthy donor and patient samples were consented prior to purchase, were none-identifiable and approved by institutional human subjects board. CD4^+ T cells were isolated using Dynal CD4 Positive Isolation Kit (Invitrogen, Carlsbad, Calif.) directly from purified PBMCs and were >99% pure. CD4^+ T cells were sorted by FACS ARIA cell sorter (BD, San Jose, Calif.) into CD45RO^+ CD25^− memory T (TM) cells. TM cells were activated either by anti-CD3 and anti-CD28 (aCD3/aCD28) coated beads (1:4 beads:cells ratio) for 18-24 hours, or by Phorbol 12-myristate 13-acetate (PMA) and ionomycin for 4 hours and further FACS sorted based on CCR6 and IL-17 expression into CCR6^− IL-17^−, CCR6^+IL-17^+, or CCR6^+IL-17^− subsets (as determined by secretion assay labeling, see below). Sorted cells (>99% pure) were cultured in serum-free Xvivo-15 medium (Lonza, Wakersville, Md.) at 37° C. and 5% CO2 for 6-7 days prior to restimulation with PMA and ionomycin (see below). […] To determine the fold expansion, CCR6^+IL-17^+ or CCR6 IL-17^− subsets were labeled with CFSE (Molecular Probes, Eugene, Oreg.) or eFluor 670 (eBioscience, San Diego, Calif.), respectively, as previously described (Oswald-Richter, et al., PLoS Biol 2004; 2: E198). […] In the experiments using PI-3K signaling inhibitors, cells were treated with PI-3K specific inhibitor, LY294002 (EMD, Gibbstown, N.J.), or Akt specific inhibitor, AKTi-1/2 (EMD), for 2 days before PMA and Ionomycin restimulation.
Manufacturer's protocols (Miltenyi Biotec) for labeling human and mouse IL-17 secreting cells were followed. Briefly, activated T-cells were washed in cold buffer (PBS+0.5% BSA+2 mM EDTA) and labeled with IL-17 catch reagent for 5 minutes on ice. […]

[2] = tested on: CCR6- TM cells; assay: IL-17 induction by cytokine culture of sorted, activated CCR6-IL-17- memory T cells; conditions: cultured with the cytokine, restimulation
Experimental: (§2) Peripheral Blood Mononuclear Cells (PBMCs) from healthy individuals (New York Blood Center, New York, N.Y.) were prepared using Ficoll-paque plus (GE Amersham, Uppsala, Sweden). Whole blood samples from rheumatoid arthritis patients were purchased from Bioreclamation (New York, N.Y.) and were processed similar to healthy donor blood. All healthy donor and patient samples were consented prior to purchase, were none-identifiable and approved by institutional human subjects board. CD4^+ T cells were isolated using Dynal CD4 Positive Isolation Kit (Invitrogen, Carlsbad, Calif.) directly from purified PBMCs and were >99% pure. CD4^+ T cells were sorted by FACS ARIA cell sorter (BD, San Jose, Calif.) into CD45RO^+ CD25^− memory T (TM) cells. TM cells were activated either by anti-CD3 and anti-CD28 (aCD3/aCD28) coated beads (1:4 beads:cells ratio) for 18-24 hours, or by Phorbol 12-myristate 13-acetate (PMA) and ionomycin for 4 hours and further FACS sorted based on CCR6 and IL-17 expression into CCR6^− IL-17^−, CCR6^+IL-17^+, or CCR6^+IL-17^− subsets (as determined by secretion assay labeling, see below). Sorted cells (>99% pure) were cultured in serum-free Xvivo-15 medium (Lonza, Wakersville, Md.) at 37° C. and 5% CO2 for 6-7 days prior to restimulation with PMA and ionomycin (see below). […]

[3] = tested on: resting CCR6+CD45RO+CD25- TM cells; assay: Cytokine expression in resting CCR6+ TM cells cultured with cytokines, no TCR stimulation (intracellular staining)
Experimental: as §1
Cells were stained as previously described (Oswald-Richter, et al., PLoS Pathogens 2007; 3: e58). For intracellular staining, T cell cultures were stimulated for 5 hours at 37° C. with PMA and Ionomycin and Golgistop (BD Biosciences). Stimulated cells were washed with PBS and stained with Fixable Viability Dye eFluor450 (eBioscience) to gate on live cells. Cells were then fixed and permeabilized by commercially available Foxp3 intracellular staining kit (eBioscience) or cytofix/cytoperm kit (BD Biosciences) as per manufacturer's protocol. Antibodies used for surface and intracellular staining included: CD45RO-FITC; CD25-PE; IFN-γ-FITC (clone 4S. B3), PE Cy7 or A700; IL-4-APC or PE; IL-17A (IL-17)-Pacific Blue (Clone BL168), FITC or Percp Cy5.5; IL-10-APC (Biolegend); IL-22-PE (R&D) or APC (eBioscience); IL-21-PE (clone 22URT1, eBioscience); FOXO1 rabbit monoclonal antibody; phospho-AKT (Ser473)-Alexa Fluor 488; Rabbit IgG isotype control-Alexa Fluor 488 (Cell Signaling, Danvers, Mass.); and CCR6-biotin (BD Biosciences). Secondary antibodies used were: Streptavidin-APC or PercpCy5.5 (BD Biosciences), Goat anti mouse-APC (BD Biosciences), anti rabbit-Alexa 647 (Molecular Probes). All data were acquired on LSRII instrument (BD Biosciences) using FACSDiva software. Data analyses were done using Flowjo software (Treestar Inc, Ashland, Oreg.). For phospho-Akt staining, Jurkat cells were fixed with BD Cytofix buffer (BD Biosciences) pre-warmed to 37° C. for 10 minutes. After spinning down, the cells were permeablilzed with ice-cold BD Phosflow Perm buffer III (BD Biosciences) on ice for 30 minutes and were stained with phospho-antibody.

[4] = tested on: CCR6- TM cells; assay: Cytokine expression in resting CCR6- TM cells cultured with IL-7; conditions: stimulated with IL-7
Experimental: as §2

[5] = tested on: Klf2; assay: Klf2 mRNA by RT-qPCR in TM cells
Experimental: as §2, with “CD4^+ T cells were sorted by FACS ARIA cell sorter (BD, San Jose, Calif.) into CD45RO^+ CD25^− memory T (TM) cells.” left out, “below).” for “below). Sorted cells (>99% pure) were cultured in serum-free Xvivo-15 medium (Lonza, Wakersville, Md.) at 37° C. and 5% CO2 for 6-7 days prior to restimulation with PMA and ionomycin (see below).”
Purified T cells (1×10^5) were snap frozen in liquid nitrogen for total RNA isolation. […] The extracted RNA was then reverse transcribed into cDNA and quantified using Taqman Cell to CT kit (Applied Biosystems, Carlsbad, Calif.). […] Data was acquired and analyzed on ABI 7500 sequence detection system. […]

[6] = tested on: CCR6+ TM cells; assay: Cytokine gene expression by quantitative nuclease protection assay (qNPA); conditions: IL-7 stimulation
[7] = tested on: TM cells; assay: Cell viability under PI-3K/Akt inhibitor treatment; conditions: 1-10 μg/mL
Experimental: (§3) Cells were stained as previously described (Oswald-Richter, et al., PLoS Pathogens 2007; 3: e58). For intracellular staining, T cell cultures were stimulated for 5 hours at 37° C. with PMA and Ionomycin and Golgistop (BD Biosciences). Stimulated cells were washed with PBS and stained with Fixable Viability Dye eFluor450 (eBioscience) to gate on live cells. Cells were then fixed and permeabilized by commercially available Foxp3 intracellular staining kit (eBioscience) or cytofix/cytoperm kit (BD Biosciences) as per manufacturer's protocol. Antibodies used for surface and intracellular staining included: CD45RO-[…]3), PE Cy7 or A700; […] IL-17A (IL-17)-Pacific Blue (Clone BL168), FITC or Percp Cy5.5; […]) or APC (eBioscience); […] FOXO1 rabbit monoclonal antibody; phospho-AKT ([…])-Alexa Fluor 488; Rabbit IgG isotype control-Alexa Fluor 488 (Cell Signaling, Danvers, Mass.); and CCR6-biotin (BD Biosciences). Secondary antibodies used were: Streptavidin-APC or […]5.5 (BD Biosciences), Goat anti mouse-APC (BD Biosciences), anti rabbit-Alexa 647 (Molecular Probes). All data were acquired on LSRII instrument (BD Biosciences) using FACSDiva software. Data analyses were done using Flowjo software (Treestar Inc, Ashland, Oreg.). For phospho-Akt staining, Jurkat cells were fixed with BD Cytofix buffer (BD Biosciences) pre-warmed to 37° C. for 10 minutes. […]

[8] = tested on: CCR6+ TM cells; assay: PI-3K/Akt inhibitor treatment of IL-7-cultured CCR6+ TM cells, cytokine production after PMA and ionomycin
Experimental: Peripheral Blood Mononuclear Cells (PBMCs) from healthy individuals (New York Blood Center, New York, N.Y.) were prepared using Ficoll-paque plus (GE Amersham, Uppsala, Sweden). […] All healthy donor and patient samples were consented prior to purchase, were none-identifiable and approved by institutional human subjects board. CD4^+ T cells were isolated using Dynal CD4 Positive Isolation Kit (Invitrogen, Carlsbad, Calif.) directly from purified PBMCs and were >99% pure. CD4^+ T cells were sorted by FACS ARIA cell sorter (BD, San Jose, Calif.) into CD45RO^+ CD25^− memory T (TM) cells. TM cells were activated either by anti-CD3 and anti-CD28 (aCD3/aCD28) coated beads (1:4 beads:cells ratio) for 18-24 hours, or by Phorbol 12-myristate 13-acetate (PMA) and ionomycin for 4 hours and further FACS sorted based on CCR6 and IL-17 expression into CCR6^− IL-17^−, CCR6^+IL-17^+, or CCR6^+IL-17^− subsets (as determined by secretion assay labeling, see below). Sorted cells (>99% pure) were cultured in serum-free Xvivo-15 medium (Lonza, Wakersville, Md.) at 37° C. and 5% CO2 for 6-7 days prior to restimulation with PMA and ionomycin (see below). Culture conditions included: 10 U/mL recombinant human IL-2, (BD Biosciences, San Jose, Calif.), 20 ng/mL IL-7, 20 ng/mL IL-15, or 20 ng/mL IL-23 (all from R&D Systems, Minneapolis, Minn.). […] In the experiments using PI-3K signaling inhibitors, cells were treated with PI-3K specific inhibitor, LY294002 (EMD, Gibbstown, N.J.), or Akt specific inhibitor, AKTi-1/2 (EMD), for 2 days before PMA and Ionomycin restimulation.
Cells were stained as previously described (Oswald-Richter, et al., PLoS Pathogens 2007; 3: e58). For intracellular staining, T cell cultures were stimulated for 5 hours at 37° C. with PMA and Ionomycin and Golgistop (BD Biosciences). Stimulated cells were washed with PBS and stained with Fixable Viability Dye eFluor450 (eBioscience) to gate on live cells. Cells were then fixed and permeabilized by commercially available Foxp3 intracellular staining kit (eBioscience) or cytofix/cytoperm kit (BD Biosciences) as per manufacturer's protocol. Antibodies used for surface and intracellular staining included: CD45RO-FITC; CD25-PE; IFN-γ-FITC (clone 4S. B3), PE Cy7 or A700; IL-4-APC or PE; IL-17A (IL-17)-Pacific Blue (Clone BL168), FITC or Percp Cy5.5; IL-10-APC (Biolegend); IL-22-PE (R&D) or APC (eBioscience); IL-21-PE (clone 22URT1, eBioscience); FOXO1 rabbit monoclonal antibody; phospho-AKT (Ser473)-Alexa Fluor 488; Rabbit IgG isotype control-Alexa Fluor 488 (Cell Signaling, Danvers, Mass.); and CCR6-biotin (BD Biosciences). Secondary antibodies used were: Streptavidin-APC or PercpCy5.5 (BD Biosciences), Goat anti mouse-APC (BD Biosciences), anti rabbit-Alexa 647 (Molecular Probes). […]

[9] = tested on: Akt phosphorylation; assay: Intracellular phospho-Akt (Ser473) staining
Experimental: as §3

[10] = tested on: Rorc and Foxp3; assay: Rorc and Foxp3 mRNA by RT-qPCR in CCR6+/- cells; conditions: IL-7 medium 7 days, then inhibitor for 2 days
Experimental: Peripheral Blood Mononuclear Cells (PBMCs) from healthy individuals (New York Blood Center, New York, N.Y.) were prepared using Ficoll-paque plus (GE Amersham, Uppsala, Sweden). Whole blood samples from rheumatoid arthritis patients were purchased from Bioreclamation (New York, N.Y.) and were processed similar to healthy donor blood. All healthy donor and patient samples were consented prior to purchase, were none-identifiable and approved by institutional human subjects board. […] Sorted cells (>99% pure) were cultured in serum-free Xvivo-15 medium (Lonza, Wakersville, Md.) at 37° C. and 5% CO2 for 6-7 days prior to restimulation with PMA and ionomycin (see below). […]). […] In the experiments using PI-3K signaling inhibitors, cells were treated with PI-3K specific inhibitor, LY294002 (EMD, Gibbstown, N.J.), or Akt specific inhibitor, AKTi-1/2 (EMD), for 2 days before PMA and Ionomycin restimulation. Purified T cells (1×10^5) were snap frozen in liquid nitrogen for total RNA isolation. […] The extracted RNA was then reverse transcribed into cDNA and quantified using Taqman Cell to CT kit (Applied Biosystems, Carlsbad, Calif.). […] Data was acquired and analyzed on ABI 7500 sequence detection system. Quantitative real-time PCR data was analyzed by normalizing Ct values of genes of interest to the Ct values of the housekeeping gene b-Actin.

[11] = one week in IL-7, then inhibitor for 48 hours

IL-7: γc-cytokine (R&D Systems)
de novo IL-17 expression in CCR6+ IL-17- T cells [1]: induced similar levels of IL-17 expression | IL-17 expression in CCR6- TM cells [2]: neither IL-7 nor IL-15 induced IL-17 expression | expression of IL-21 ([3]; CCR6+ or CCR6- TM cells upon stimulation with IL-7): slightly reduced | enhancement of IL-17 expression compared to the same cells ex vivo (day 0) ([3]; IL-7 for 10 days): more than 3 fold | enhancement of IL-22 expression compared to the same cells ex vivo (day 0) ([3]; IL-7 for 10 days): more than 3 fold | increase of double cytokine-producing cells (IL-22 or IFNγ co-expressed with IL-17) ([3]; IL-7 stimulation): more than 5 fold | impact on IFNγ production ([3]; resting CCR6+ or CCR6- TM cells cultured with IL-7): almost no impact | IL-17 or IL-22 expression in CCR6- TM cells [4]: failed to express IL-17 or IL-22 | Klf2 expression in resting CCR6+ TM cells ([5]; stimulation with IL-7 alone): decreased | Ccl20 expression [6]: neither significantly induced | expression of non-Th17 related cytokines (Il2, Ifng, Tnf) [6]: not influenced

O=c1cc(N2CCOCC2)oc2c(-c3ccccc3)cccc12 [LY294002]
cell viability [7]: without adversely affecting cell viability

IL-4: another γc-cytokine
IL-17/IL-22 (Th17 cytokine) expression in resting CCR6+ TM cells ([3]; stimulation with the single cytokine): did not promote Th17 cytokine production

O=c1[nH]c2ccccc2n1C1CCN(Cc2ccc(-c3nc4cc5nc[nH]c5cc4nc3-c3ccccc3)cc2)CC1 [AKTi-1/2]
IL-17 and IL-22 production induced by IL-7 from CCR6+ TM cells ([8]; 5 μg/ml, Day 10): suppresses | expression of IFNγ [8, 11]: not affected | expression of IL-4 [8, 11]: less reduced | γc-mediated IL-17/IL-22 induction ([8]; one week in IL-7, then inhibitor for 48 hours, dose-dependent): repressed | Akt phosphorylation (Ser473) in Jurkat cells ([9]; Jurkat T cells treated for 30 minutes): Inhibition of Akt phosphorylation | cytokine-dependent phosphorylation of Akt ([9]; TM cells, 1-10 μg/mL): downregulated | cell viability [7]: without adversely affecting cell viability | Klf2 message expression in aCD3/aCD28-activated CCR6+ TM cells expanded in IL-2 ([5]; IL-2 medium 2 weeks, inhibitor for 2 days): upregulates | Rorc and Foxp3 transcripts [10]: not affected

IL-15: γc-cytokine (R&D Systems)
de novo IL-17 expression in CCR6+ IL-17- T cells [1]: induced similar levels of IL-17 expression | IL-17 expression in CCR6- TM cells [2]: neither IL-7 nor IL-15 induced IL-17 expression

B1: IL-23: cytokine (R&D Systems) (protein, UniProt Q9NPF7 20-189; P29460 23-328, looked up)
Interleukin-23 subunit alpha: RAVPGGSSPAWTQCQQLSQKLCTLAWSAHPLVGHMDLREEGDEETTNDVPHIQCGDGCDPQGLRDNSQFCLQRIHQGLIFYEKLLGSDIFTGEPSLLPDSPVGQLHASLLGLSQLLQPEGHHWETQQIPSLSPSQPWQRLLLRFKILRSLQAFVAVAARVFAHGAATLSP
Interleukin-12 subunit beta: IWELKKDVYVVELDWYPDAPGEMVVLTCDTPEEDGITWTLDQSSEVLGSGKTLTIQVKEFGDAGQYTCHKGGEVLSHSLLLLHKKEDGIWSTDILKDQKEPKNKTFLRCEAKNYSGRFTCWWLTTISTDLTFSVKSSRGSSDPQGVTCGAATLSAERVRGDNKEYEYSVECQEDSACPAAEESLPIEVMVDAVHKLKYENYTSSFFIRDIIKPDPPKNLQLKPLKNSRQVEVSWEYPDTWSTPHSYFSLTFCVQVQGKSKREKKDRVFTDKTSATVICRKNASISVRAQDRYYSSSWSEWASVPCS
de novo IL-17 expression in CCR6+ IL-17- T cells [1]: did not influence IL-17 expression | synergy with IL-7 to further induce IL-17 or IL-22 expression ([3]; IL-7 (20 ng/ml)+IL-23 (20 ng/ml) for 10 days): did not significantly synergize
